According to PMC5862592, “CDK8/19 inhibition induces premature G1/S transition and ATR-dependent cell death in prostate cancer cells” (Oncotarget, 2018):
Like-named read-outs stand apart in the source and are kept apart here.

Legend:
Assay in all cases: biochemical
Parameters in all cases: KINOMEscan active site-directed competition binding assay (DiscoveRx), 456 kinases, per cent of control at 300 nM
Conditions in all cases: read-out: Percent of Control (%)
PIM3 = PIM3 (Homo sapiens, UniProt Q86V86)
How it was run: (§1)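 Binding was measured with an active site-directed competition binding assay that quantifies compound–kinase interactions. Test compounds were screened at 300 nmol/L across a 456-kinase panel.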

PFTAIRE2 = biological target: T1, PFTAIRE2 (Homo sapiens, UniProt Q96Q40)
T1 construct: gene CDK15
How it was run: as §1

EGFR(L861Q) = EGFR(L861Q) (Homo sapiens, UniProt P00533, L861Q)
How it was run: as §1

NEK10 = NEK10 (Homo sapiens, UniProt Q6ZWH5)
How it was run: as §1

RAF1 = RAF1 (Homo sapiens, UniProt P04049)
How it was run: as §1

[1] = biological target: T2, RSK1(Kin.Dom.2-C-terminal) (Homo sapiens, UniProt Q15418)
T2 construct: gene RPS6KA1; Kin.Dom.2-C-terminal
How it was run: as §1

[2] = biological target: T3, RSK1(Kin.Dom.1-N-terminal) (Homo sapiens, UniProt Q15418)
T3 construct: gene RPS6KA1; Kin.Dom.1-N-terminal
How it was run: as §1

CDK5 = CDK5 (Homo sapiens, UniProt Q00535)
How it was run: as §1

BMPR1B = BMPR1B (Homo sapiens, UniProt O00238)
How it was run: as §1

ROCK1 = ROCK1 (Homo sapiens, UniProt Q13464)
How it was run: as §1

RIPK1 = RIPK1 (Homo sapiens, UniProt Q13546)
How it was run: as §1

CDK9 = CDK9 (Homo sapiens, UniProt P50750)
How it was run: as §1

PIK3CA(Q546K) = PIK3CA(Q546K) (Homo sapiens, UniProt P42336, Q546K)
How it was run: as §1

PRKCI = PRKCI (Homo sapiens, UniProt P41743)
How it was run: as §1

TSSK1B = TSSK1B (Homo sapiens, UniProt Q9BXA7)
How it was run: as §1

CDK4-cyclinD1 = biological target: T4, CDK4-cyclinD1 (Homo sapiens, UniProt P11802)
T4 construct: cyclinD1
How it was run: as §1

DAPK3 = DAPK3 (Homo sapiens, UniProt O43293)
How it was run: as §1

IRAK3 = IRAK3 (Homo sapiens, UniProt Q9Y616)
How it was run: as §1

BRSK1 = BRSK1 (Homo sapiens, UniProt Q8TDC3)
How it was run: as §1

FLT3(N841I) = FLT3(N841I) (Homo sapiens, UniProt P36888, N841I)
How it was run: as §1

EGFR = EGFR (Homo sapiens, UniProt P00533)
How it was run: as §1

Sequence of EGFR(L861Q) (P00533 whole entry L861Q): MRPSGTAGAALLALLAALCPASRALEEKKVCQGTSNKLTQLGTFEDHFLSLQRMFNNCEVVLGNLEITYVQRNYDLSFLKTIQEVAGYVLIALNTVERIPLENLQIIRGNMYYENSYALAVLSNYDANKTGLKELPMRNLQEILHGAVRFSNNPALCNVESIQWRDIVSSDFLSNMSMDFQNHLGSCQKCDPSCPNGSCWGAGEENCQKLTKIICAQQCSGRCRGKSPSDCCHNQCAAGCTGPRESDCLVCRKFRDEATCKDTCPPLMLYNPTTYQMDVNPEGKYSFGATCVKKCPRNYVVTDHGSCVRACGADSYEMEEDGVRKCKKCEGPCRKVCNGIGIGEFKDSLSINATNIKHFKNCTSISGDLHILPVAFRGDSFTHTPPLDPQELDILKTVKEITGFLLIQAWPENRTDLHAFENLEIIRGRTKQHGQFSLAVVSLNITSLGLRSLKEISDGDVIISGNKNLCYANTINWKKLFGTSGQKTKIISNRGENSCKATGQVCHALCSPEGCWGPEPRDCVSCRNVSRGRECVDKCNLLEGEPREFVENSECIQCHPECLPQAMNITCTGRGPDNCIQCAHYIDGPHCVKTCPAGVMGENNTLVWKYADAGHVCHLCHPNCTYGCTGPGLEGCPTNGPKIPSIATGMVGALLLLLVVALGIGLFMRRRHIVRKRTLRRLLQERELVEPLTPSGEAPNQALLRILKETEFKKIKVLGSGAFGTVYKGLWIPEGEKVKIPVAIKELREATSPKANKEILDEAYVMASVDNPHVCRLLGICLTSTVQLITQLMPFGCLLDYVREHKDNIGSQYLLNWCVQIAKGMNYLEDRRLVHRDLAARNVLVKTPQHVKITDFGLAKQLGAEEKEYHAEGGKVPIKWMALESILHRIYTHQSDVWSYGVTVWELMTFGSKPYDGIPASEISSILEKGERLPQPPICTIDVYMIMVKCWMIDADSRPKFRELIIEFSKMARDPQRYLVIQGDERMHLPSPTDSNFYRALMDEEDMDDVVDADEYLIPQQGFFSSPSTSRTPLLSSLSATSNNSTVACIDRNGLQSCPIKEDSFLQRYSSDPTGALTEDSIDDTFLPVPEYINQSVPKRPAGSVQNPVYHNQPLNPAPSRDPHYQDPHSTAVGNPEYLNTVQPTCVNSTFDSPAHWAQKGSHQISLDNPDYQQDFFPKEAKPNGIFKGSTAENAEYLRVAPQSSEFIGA
T4 sequence (P11802 whole entry): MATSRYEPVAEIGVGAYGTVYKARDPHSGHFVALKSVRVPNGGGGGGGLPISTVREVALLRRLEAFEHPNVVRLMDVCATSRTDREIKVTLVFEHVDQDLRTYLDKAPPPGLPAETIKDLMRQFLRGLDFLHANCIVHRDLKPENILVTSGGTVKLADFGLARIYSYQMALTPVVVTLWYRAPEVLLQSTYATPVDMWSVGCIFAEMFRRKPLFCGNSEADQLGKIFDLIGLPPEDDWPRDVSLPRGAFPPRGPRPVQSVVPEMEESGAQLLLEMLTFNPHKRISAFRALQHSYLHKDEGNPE
T4 sequence (P24385 whole entry partner): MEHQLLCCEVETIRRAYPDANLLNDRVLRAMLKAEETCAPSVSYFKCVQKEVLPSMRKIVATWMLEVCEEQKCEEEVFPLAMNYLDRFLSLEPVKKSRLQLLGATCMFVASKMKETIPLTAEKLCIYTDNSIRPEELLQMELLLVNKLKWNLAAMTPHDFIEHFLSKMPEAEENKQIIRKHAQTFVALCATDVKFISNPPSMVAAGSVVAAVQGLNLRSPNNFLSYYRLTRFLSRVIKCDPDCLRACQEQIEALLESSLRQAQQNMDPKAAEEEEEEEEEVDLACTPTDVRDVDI
Sequence of BRSK1 (Q8TDC3 whole entry): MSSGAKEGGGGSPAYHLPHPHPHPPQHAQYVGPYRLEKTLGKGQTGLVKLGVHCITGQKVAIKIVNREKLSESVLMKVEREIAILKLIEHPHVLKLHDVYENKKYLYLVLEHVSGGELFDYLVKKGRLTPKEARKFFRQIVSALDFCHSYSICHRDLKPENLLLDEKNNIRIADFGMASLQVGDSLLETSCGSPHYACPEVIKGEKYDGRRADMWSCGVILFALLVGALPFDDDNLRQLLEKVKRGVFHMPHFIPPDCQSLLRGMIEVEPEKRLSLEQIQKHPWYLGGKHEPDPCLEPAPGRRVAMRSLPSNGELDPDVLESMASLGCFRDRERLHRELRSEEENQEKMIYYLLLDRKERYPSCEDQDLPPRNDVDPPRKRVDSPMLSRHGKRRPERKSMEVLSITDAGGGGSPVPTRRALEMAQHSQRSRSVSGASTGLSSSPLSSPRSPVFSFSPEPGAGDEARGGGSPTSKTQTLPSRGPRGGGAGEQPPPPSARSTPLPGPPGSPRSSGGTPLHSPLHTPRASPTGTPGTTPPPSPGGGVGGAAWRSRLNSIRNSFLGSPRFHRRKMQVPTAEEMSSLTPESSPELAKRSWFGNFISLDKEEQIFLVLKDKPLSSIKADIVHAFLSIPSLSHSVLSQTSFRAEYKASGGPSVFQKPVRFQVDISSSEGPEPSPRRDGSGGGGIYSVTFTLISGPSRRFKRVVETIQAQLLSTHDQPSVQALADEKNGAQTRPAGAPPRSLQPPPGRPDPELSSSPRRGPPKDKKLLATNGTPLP
Sequence of CDK5 (Q00535 whole entry): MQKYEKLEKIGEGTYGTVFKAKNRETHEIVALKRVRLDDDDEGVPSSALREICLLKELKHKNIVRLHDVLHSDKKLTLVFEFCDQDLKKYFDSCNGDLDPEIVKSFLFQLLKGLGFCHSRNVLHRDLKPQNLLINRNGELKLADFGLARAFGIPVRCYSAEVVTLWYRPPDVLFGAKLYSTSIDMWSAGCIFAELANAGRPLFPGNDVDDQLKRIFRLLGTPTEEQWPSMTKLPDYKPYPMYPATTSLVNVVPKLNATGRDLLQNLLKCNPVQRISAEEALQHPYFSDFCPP
Sequence of IRAK3 (Q9Y616 whole entry): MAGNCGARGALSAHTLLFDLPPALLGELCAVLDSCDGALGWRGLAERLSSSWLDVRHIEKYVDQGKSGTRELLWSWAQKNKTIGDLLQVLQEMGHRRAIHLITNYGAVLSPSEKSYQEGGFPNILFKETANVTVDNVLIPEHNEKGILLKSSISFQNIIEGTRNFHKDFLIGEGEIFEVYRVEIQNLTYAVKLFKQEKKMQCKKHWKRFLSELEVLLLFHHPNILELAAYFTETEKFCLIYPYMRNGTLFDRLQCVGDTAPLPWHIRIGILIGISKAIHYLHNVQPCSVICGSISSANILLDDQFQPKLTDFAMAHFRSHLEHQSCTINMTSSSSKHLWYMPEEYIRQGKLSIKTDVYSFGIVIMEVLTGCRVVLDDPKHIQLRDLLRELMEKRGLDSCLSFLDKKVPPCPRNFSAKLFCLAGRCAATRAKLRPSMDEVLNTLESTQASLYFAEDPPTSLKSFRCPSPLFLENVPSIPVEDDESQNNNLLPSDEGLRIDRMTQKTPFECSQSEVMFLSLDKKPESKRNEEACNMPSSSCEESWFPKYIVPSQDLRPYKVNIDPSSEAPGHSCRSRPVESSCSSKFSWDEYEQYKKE
Sequence of ROCK1 (Q13464 whole entry): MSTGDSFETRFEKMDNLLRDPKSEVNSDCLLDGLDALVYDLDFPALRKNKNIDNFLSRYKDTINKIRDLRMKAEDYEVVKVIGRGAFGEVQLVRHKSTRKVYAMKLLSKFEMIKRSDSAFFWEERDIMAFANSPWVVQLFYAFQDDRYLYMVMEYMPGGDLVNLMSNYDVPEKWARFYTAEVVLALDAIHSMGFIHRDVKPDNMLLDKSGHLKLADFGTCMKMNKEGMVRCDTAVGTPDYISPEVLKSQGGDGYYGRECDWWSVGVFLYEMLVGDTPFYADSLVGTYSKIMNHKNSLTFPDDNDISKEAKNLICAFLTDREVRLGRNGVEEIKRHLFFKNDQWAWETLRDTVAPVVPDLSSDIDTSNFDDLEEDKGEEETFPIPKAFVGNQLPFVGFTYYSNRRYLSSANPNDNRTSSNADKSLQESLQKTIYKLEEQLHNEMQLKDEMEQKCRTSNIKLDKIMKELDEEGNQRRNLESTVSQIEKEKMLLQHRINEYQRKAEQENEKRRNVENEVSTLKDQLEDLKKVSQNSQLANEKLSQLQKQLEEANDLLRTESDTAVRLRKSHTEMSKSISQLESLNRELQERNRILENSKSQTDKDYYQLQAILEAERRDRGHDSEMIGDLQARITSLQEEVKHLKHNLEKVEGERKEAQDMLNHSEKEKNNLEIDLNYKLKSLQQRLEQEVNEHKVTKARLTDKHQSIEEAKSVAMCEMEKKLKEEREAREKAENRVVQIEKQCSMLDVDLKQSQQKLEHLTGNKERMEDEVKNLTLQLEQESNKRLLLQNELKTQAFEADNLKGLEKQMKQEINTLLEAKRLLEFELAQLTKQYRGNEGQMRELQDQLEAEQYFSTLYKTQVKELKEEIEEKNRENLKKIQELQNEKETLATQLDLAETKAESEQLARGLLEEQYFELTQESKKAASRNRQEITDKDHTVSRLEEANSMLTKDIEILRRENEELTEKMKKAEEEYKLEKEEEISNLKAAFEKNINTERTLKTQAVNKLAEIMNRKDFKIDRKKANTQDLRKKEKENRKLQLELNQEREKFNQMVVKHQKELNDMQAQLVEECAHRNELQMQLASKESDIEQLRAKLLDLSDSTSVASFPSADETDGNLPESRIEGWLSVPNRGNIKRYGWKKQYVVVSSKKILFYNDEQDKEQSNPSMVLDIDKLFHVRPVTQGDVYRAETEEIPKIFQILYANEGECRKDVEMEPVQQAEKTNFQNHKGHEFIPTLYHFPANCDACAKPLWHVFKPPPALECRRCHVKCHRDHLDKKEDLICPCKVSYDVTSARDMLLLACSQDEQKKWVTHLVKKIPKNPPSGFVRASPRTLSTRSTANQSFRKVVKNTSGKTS

SMILES: O=C(/C=C/c1cnccc1-c1ccc(F)cc1)Nc1ccc(CCc2nnco2)cc1 [T-418, (2E)-3-(4-(4-fluorophenyl)pyridin-3-yl)-N-(4-(2-(1,3,4-oxadiazol-2-yl)ethyl)phenyl)acrylamide]
- remaining binding at 0.3 µM (PIM3; sheet T-418): 76%
- remaining binding at 0.3 µM (PFTAIRE2; sheet T-418): 92%
- remaining binding at 0.3 µM (EGFR(L861Q); sheet T-418): 86%
- remaining binding at 0.3 µM (NEK10; sheet T-418): 100%
- remaining binding at 0.3 µM (RAF1; sheet T-418): 80%
- remaining binding at 0.3 µM ([1]; sheet T-418): 100%
- remaining binding at 0.3 µM ([2]; sheet T-418): 78%
- remaining binding at 0.3 µM (CDK5; sheet T-418): 80%
- remaining binding at 0.3 µM (BMPR1B; sheet T-418): 100%
- remaining binding at 0.3 µM (ROCK1; sheet T-418): 81%
- remaining binding at 0.3 µM (RIPK1; sheet T-418): 83%
- remaining binding at 0.3 µM (CDK9; sheet T-418): 83%
- remaining binding at 0.3 µM (PIK3CA(Q546K); sheet T-418): 100%
- remaining binding at 0.3 µM (PRKCI; sheet T-418): 70%
- remaining binding at 0.3 µM (TSSK1B; sheet T-418): 100%
- remaining binding at 0.3 µM (CDK4-cyclinD1; sheet T-418): 91%
- remaining binding at 0.3 µM (DAPK3; sheet T-418): 83%
- remaining binding at 0.3 µM (IRAK3; sheet T-418): 100%
- remaining binding at 0.3 µM (BRSK1; sheet T-418): 100%
- remaining binding at 0.3 µM (FLT3(N841I); sheet T-418): 79%
- remaining binding at 0.3 µM (EGFR; sheet T-418): 59%

SMILES: Cc1ncccc1Oc1sc(C(N)=O)c2c1-c1c(cnn1C)CC2 [T-474, 1-methyl-8-((2-methylpyridin-3-yl)oxy)-4,5-dihydro-1H-thieno[3,4-g]indazole-6-carboxamide]
- remaining binding at 0.3 µM (PIM3): 82%
- remaining binding at 0.3 µM (PFTAIRE2): 100%
- remaining binding at 0.3 µM (EGFR(L861Q)): 91%
- remaining binding at 0.3 µM (NEK10): 100%
- remaining binding at 0.3 µM (RAF1): 98%
- remaining binding at 0.3 µM [1]: 100%
- remaining binding at 0.3 µM [2]: 95%
- remaining binding at 0.3 µM (CDK5): 94%
- remaining binding at 0.3 µM (BMPR1B): 100%
- remaining binding at 0.3 µM (ROCK1): 100%
- remaining binding at 0.3 µM (RIPK1): 95%
- remaining binding at 0.3 µM (CDK9): 80%
- remaining binding at 0.3 µM (PIK3CA(Q546K)): 100%
- remaining binding at 0.3 µM (PRKCI): 77%
- remaining binding at 0.3 µM (TSSK1B): 100%
- remaining binding at 0.3 µM (CDK4-cyclinD1): 95%
- remaining binding at 0.3 µM (DAPK3): 100%
- remaining binding at 0.3 µM (IRAK3): 96%
- remaining binding at 0.3 µM (BRSK1): 100%
- remaining binding at 0.3 µM (FLT3(N841I)): 97%
- remaining binding at 0.3 µM (EGFR): 61%
